{"source": "patent US20260364099A1", "about": "“GLYCYRRHIZIC ACID HYDROGELS” (KATHOLIEKE UNIVERSITEIT LEUVEN, priority 2023, published 2026)", "key": {"Escherichia coli [1]": {"test_system": "Escherichia coli", "experiment": "Growth inhibition evaluation (relative OD595)", "format": "cell-based, Escherichia coli UTI89", "conditions": "50 mg/mL glycyrrhizic acid in solution or 0.5 mL/mL of 10 wt % hydrogel, 24 h, 37 °C", "procedure": "(§1) The growth inhibiting effect of 50 mg/mL glycyrrhizic acid in solution and 0.5 mL/mL of 10 wt % hydrogel C, corresponding with a total of 50 mg/mL of glycyrrhizic acid in the system are shown in grey bars with circles. Both are compared to suitable controls (shown in white bars with squares) i.e. growth media with an adjusted pH that is associated with the acidifying effect of glycyrrhizic acid in solution (pH 7.4) and hydrogel C (pH 4.6) but without the presence of glycyrrhizic acid in solution or hydrogel C, respectively. ns: p>0.05, ****p<0.0001. […]\n(§2) Three different formulations of the glycyrrhizic acid hydrogels were made in dH2O: (i) Hydrogel C with pH=3, (ii) Hydrogel B with pH=3.8 and (iii) Hydrogel A with pH=4.2. pH was measured at 70 °C and varied using HCl or NaOH to acidify or alkalify the formulation to the desired pH-value. […]\n(§3) To avoid evaporation, the plates were sealed using a membrane (Greiner Bio-one NV). After 24 hours of incubation (37 °C, 200 rpm), the OD595 was measured and relative OD595 was calculated by dividing the OD595 by the average OD595 of the growth control (=growth of cells in MHB without glycyrrhizic acid)."}, "Klebsiella pneumoniae": {"test_system": "Klebsiella pneumoniae", "experiment": "Growth inhibition evaluation (relative OD595)", "format": "cell-based, Klebsiella pneumoniae ATCC13883", "conditions": "50 mg/mL glycyrrhizic acid in solution or 0.5 mL/mL of 10 wt % hydrogel, 24 h, 37 °C", "procedure": "as §1, §2, §3"}, "Escherichia coli [2]": {"test_system": "Escherichia coli", "conditions": "cited from earlier work"}, "Streptococci": {"test_system": "Streptococci", "conditions": "cited from earlier work"}, "[3]": {"test_system": "Staphylococcus epidermidis", "experiment": "Growth inhibition evaluation (relative OD595)", "format": "cell-based, clinical isolate", "conditions": "25 mg/mL glycyrrhizic acid in solution or 0.5 mL/mL of 5 wt % hydrogel, 24 h, 37 °C", "procedure": "as §1, with “25” for “50”, “5” for “10”, “A,” for “C,”, “A” for “C”, “5.2)” for “4.6)”, “p>0.05, *p<0.05, **p<0.01,” for “p>0.05,”\nas §2, §3"}, "Pseudomonas aeruginosa": {"test_system": "Pseudomonas aeruginosa", "experiment": "Growth inhibition evaluation (relative OD595)", "format": "cell-based, Pseudomonas aeruginosa LMG9009", "conditions": "25 mg/mL glycyrrhizic acid in solution or 0.5 mL/mL of 5 wt % hydrogel, 24 h, 37 °C", "procedure": "as §1, with “25” for “50”, “5” for “10”, “B,” for “C,”, “B” for “C”, “5)” for “4.6)”\nas §2, §3"}, "Enterococcus": {"test_system": "Enterococcus", "experiment": "Antibacterial effect (no effect, bacteriostatic, bactericidal); growth inhibition followed by biocidal plating", "format": "cell-based, Enterococcus faecalis LMG8148", "conditions": "bactericidal = 3 LOG reduction compared to the inoculum", "procedure": "(§4) The below table summarises the antibacterial effect (no effect, bacteriostatic, bactericidal) of the glycyrrhizic acid hydrogels on different pathogens tested.\nThe bactericidal effect of 0.5 mL/mL of 10 wt % hydrogel C (shown in grey bars with circles) is compared to growth medium with an adjusted pH (pH 4.6) that is associated with the acidifying effect of hydrogel C (shown in white bars with squares). ****p<0.0001. […]\nas §2\nas §3, with “acid). […]” for “acid).”"}, "E. faecalis": {"test_system": "E. faecalis", "experiment": "Growth inhibition evaluation (relative OD595)", "format": "cell-based, Enterococcus faecalis LMG8148", "conditions": "25 mg/mL glycyrrhizic acid in solution or 0.5 mL/mL of 5 wt % hydrogel, 24 h, 37 °C", "procedure": "as §1, with “25” for “50”, “5” for “10”, “A,” for “C,”, “A” for “C”, “5.2)” for “4.6)”, “p>0.05, *p<0.05, **p<0.01,” for “p>0.05,”\nas §2, §3"}, "Proteus vulgaris": {"test_system": "Proteus vulgaris", "conditions": "cited from earlier work"}, "Candida albicans": {"test_system": "Candida albicans", "conditions": "cited from earlier work"}, "S. pyogenes": {"test_system": "S. pyogenes", "experiment": "Growth inhibition evaluation (relative OD595)", "format": "cell-based, Streptococcus pyogenes LMG 14237", "procedure": "The glycyrrhizic acid concentration is calculated based on the percentage of glycyrrhizic acid in the gel and the amount of this gel used in the assay. Note that the pH at the gel surface is lower than the initial pH of the growth medium on top of the gel due to the acidifying effect of the hydrogel. This pH difference is dependent of the pH of the hydrogel, the percentage of glycyrrhizic acid in the hydrogel and the amount of hydrogel used. The different hydrogels are indicated by color: white circles represent the hydrogel A, grey circles represent hydrogel B and black circles represent the hydrogel C. The 2 grey dots at pH 7.0 in the plot represent the (lack of) activity of glycyrrhizic acid in solution. Of all nine pathogens tested, only Streptococcus pyogenes was inhibited by 50 mg/mL glycyrrhizic acid in solution.\nThe growth inhibiting effect of 25 mg/mL glycyrrhizic acid in solution and 0.5 mL/mL of 5 wt % hydrogel A, corresponding with a total of 25 mg/mL of glycyrrhizic acid in the system are shown in grey bars with circles. […]\nas §2"}, "Streptococcus": {"test_system": "Streptococcus", "experiment": "Antibacterial effect (no effect, bacteriostatic, bactericidal); growth inhibition followed by biocidal plating", "format": "cell-based, Streptococcus pyogenes LMG 14237", "conditions": "bactericidal = 3 LOG reduction compared to the inoculum", "procedure": "as §4\nThe bactericidal effect of 0.5 mL/mL of 5 wt % hydrogel A (shown in grey bars with circles) is compared to growth medium with an adjusted pH (pH 5.2) that is associated with the acidifying effect of hydrogel A (shown in white bars with squares). ns: p>0.05, ****p<0.0001. […]\nas §2\nas §3, with “acid). […]” for “acid).”"}, "Klebsiella aerogenes": {"test_system": "Klebsiella aerogenes", "experiment": "Growth inhibition evaluation (relative OD595)", "format": "cell-based, Klebsiella aerogenes ATCC13048", "conditions": "50 mg/mL glycyrrhizic acid in solution or 0.5 mL/mL of 10 wt % hydrogel, 24 h, 37 °C", "procedure": "as §1, §2, §3"}, "MRSA": {"test_system": "MRSA", "experiment": "Growth inhibition evaluation (relative OD595)", "format": "cell-based, methicillin resistant S. aureus (MRSA), clinical isolate", "conditions": "25 mg/mL glycyrrhizic acid in solution or 0.5 mL/mL of 5 wt % hydrogel, 24 h, 37 °C", "procedure": "as §1, with “25” for “50”, “5” for “10”, “A,” for “C,”, “A” for “C”, “5.2)” for “4.6)”, “p>0.05, *p<0.05, **p<0.01,” for “p>0.05,”\nas §2, §3"}, "Acinetobacter baumanni": {"test_system": "Acinetobacter baumanni", "experiment": "Growth inhibition evaluation (relative OD595)", "format": "cell-based, Acinetobacter baumannii RD5SR3", "conditions": "25 mg/mL glycyrrhizic acid in solution or 0.5 mL/mL of 5 wt % hydrogel, 24 h, 37 °C", "procedure": "as §1, with “25” for “50”, “5” for “10”, “A,” for “C,”, “A” for “C”, “5.2)” for “4.6)”, “p>0.05, *p<0.05, **p<0.01,” for “p>0.05,”\nas §2, §3"}}, "data": [{"molecule": "CC1(C)[C@@H](O[C@H]2O[C@H](C(=O)O)[C@@H](O)[C@H](O)[C@H]2O[C@@H]2O[C@H](C(=O)O)[C@@H](O)[C@H](O)[C@H]2O)CC[C@]2(C)[C@H]3C(=O)C=C4[C@@H]5C[C@@](C)(C(=O)O)CC[C@]5(C)CC[C@@]4(C)[C@]3(C)CC[C@@H]12", "note": "[glycyrrhizic acid]", "values": [{"measurement": "growth inhibiting activity", "setting": "Escherichia coli [1]", "value": "lack of/limited growth inhibiting activity"}, {"measurement": "growth inhibiting activity", "setting": "Klebsiella pneumoniae", "value": "lack of/limited growth inhibiting activity"}, {"measurement": "antibacterial potential in solution", "setting": "Escherichia coli [2]", "value": "lack of activity"}, {"measurement": "antibacterial potential in solution", "setting": "Streptococci", "value": "lack of activity"}, {"measurement": "growth inhibiting activity", "setting": "[3]", "value": "lack of/limited growth inhibiting activity"}, {"measurement": "growth inhibiting activity", "setting": "Pseudomonas aeruginosa", "value": "lack of/limited growth inhibiting activity"}, {"measurement": "antibacterial effect (no effect, bacteriostatic, bactericidal)", "setting": "Enterococcus", "value": "No effect"}, {"measurement": "growth inhibiting activity", "setting": "E. faecalis", "value": "lack of/limited growth inhibiting activity"}, {"measurement": "antibacterial potential in solution", "setting": "Proteus vulgaris", "value": "lack of activity"}, {"measurement": "antibacterial potential in solution", "setting": "Candida albicans", "value": "lack of activity"}, {"measurement": "complete growth inhibition (FIG. 1)", "setting": "S. pyogenes; 50 mg/mL glycyrrhizic acid in solution, only Streptococcus pyogenes of nine pathogens", "value": "inhibited"}, {"measurement": "growth inhibiting activity", "setting": "S. pyogenes; S. pyogenes, 25 mg/mL glycyrrhizic acid in solution or 0.5 mL/mL of 5 wt % hydrogel, 24 h, 37 °C", "value": "lack of/limited growth inhibiting activity"}, {"measurement": "antibacterial effect (no effect, bacteriostatic, bactericidal)", "setting": "Streptococcus", "value": "Bacterio-"}, {"measurement": "growth inhibiting activity", "setting": "Klebsiella aerogenes", "value": "lack of/limited growth inhibiting activity"}, {"measurement": "growth inhibiting activity", "setting": "MRSA", "value": "lack of/limited growth inhibiting activity"}, {"measurement": "growth inhibiting activity", "setting": "Acinetobacter baumanni", "value": "lack of/limited growth inhibiting activity"}]}]}
